In US20130005568A1, “SAFENED HERBICIDAL MIXTURES” (E.I. DU PONT DE NEMOURS AND COMPANY, priority 2011, published 2013):

Experiments:
Experiment in all cases: Test G: turf grass and weed postemergence plant response rating
Purple nutsedge = type: in vivo, Cyperus rotundus L.; conditions: Purple nutsedge, postemergence, greenhouse, three weeks, 0-100 scale
From the text: (§1) For all of the following biological tests, plant response ratings were based on a 0-100 scale where zero is growth equivalent to that of untreated plants (no plant response) and 100 represents no additional growth occurring after herbicide treatment.
(§2) Plants of the turf grass species: zoysia (Zoysia japonica Steud.), bermudagrass (Cynodon dactylon (L.) Pers.), tall fescue (Festuca arundinacea Shreib.), creeping bentgrass (Agrostis stoonoifera L.), perennial ryegrass (Lolium perenne L.) and hard fescue (Festuca species) were grown under greenhouse conditions for four months. Plants were clipped as needed to plant heights of 5-10 cm. Weeds typically found in turf: annual bluegrass (Poa annua L.), common chickweed (Stellaria media (L.) Vill.), large crabgrass (Digitaria sanguinales (L.) Scop.), dandelion (Taraxacum officinale Weber in Wiggers), goosegrass (Eleusine indica (L.) Gaertn.), henbit (Lamium amplexicaule L.), venice mallow (Hibiscus trionium L.) and purple nutsedge (Cyperus rotundus L.) were also grown under greenhouse conditions so that plants were 5-20 cm tall when they were treated. Herbicide mixtures were formulated, dissolved/dispersed in water containing 0.25% non-ionic surfactant, and sprayed postemergence to these turf grasses and weeds. Treated plants were grown under greenhouse conditions for three weeks before visual evaluations of plant responses were recorded.

Henbit = type: in vivo, Lamium amplexicaule L.; conditions: Henbit, postemergence, greenhouse, three weeks, 0-100 scale
From the text: as §1, §2

Tall fescue = type: in vivo, Festuca arundinacea Shreib.; conditions: Tall fescue, postemergence, greenhouse, three weeks, 0-100 scale
From the text: as §1, §2

Chickweed = type: in vivo, Stellaria media (L.) Vill.; conditions: Chickweed, postemergence, greenhouse, three weeks, 0-100 scale
From the text: as §1, §2

Perennial ryegrass = type: in vivo, Lolium perenne L.; conditions: Perennial ryegrass, postemergence, greenhouse, three weeks, 0-100 scale
From the text: as §1, §2

Annual bluegrass = type: in vivo, Poa annua L.; conditions: Annual bluegrass, postemergence, greenhouse, three weeks, 0-100 scale
From the text: as §1, §2

Zoysia grass = type: in vivo, Zoysia japonica Steud.; conditions: Zoysia grass, postemergence, greenhouse, three weeks, 0-100 scale
From the text: as §1, §2

Bermudagrass = type: in vivo, Cynodon dactylon (L.) Pers.; conditions: Bermudagrass, postemergence, greenhouse, three weeks, 0-100 scale
From the text: as §1
Plants of the turf grass species: zoysia (Zoysia japonica Steud.), bermudagrass (Cynodon dactylon (L.) Pers.), tall fescue (Festuca arundinacea Shreib.), creeping bentgrass (Agrostis stoonoifera L.), perennial ryegrass (Lolium perenne L.) and hard fescue (Festuca species) were grown under greenhouse conditions for four months. Plants were clipped as needed to plant heights of 5-10 cm. […] Herbicide mixtures were formulated, dissolved/dispersed in water containing 0.25% non-ionic surfactant, and sprayed postemergence to these turf grasses and weeds. Treated plants were grown under greenhouse conditions for three weeks before visual evaluations of plant responses were recorded.

Venice mallow = type: in vivo, Hibiscus trionium L.; conditions: Venice mallow, postemergence, greenhouse, three weeks, 0-100 scale
From the text: as §1, §2

Creeping bentgrass = type: in vivo, Agrostis stoonoifera L.; conditions: Creeping bentgrass, postemergence, greenhouse, three weeks, 0-100 scale
From the text: as §1, §2

Goosegrass = type: in vivo, Eleusine indica (L.) Gaertn.; conditions: Goosegrass, postemergence, greenhouse, three weeks, 0-100 scale
From the text: as §1, §2

Dandelion = type: in vivo, Taraxacum officinale Weber in Wiggers; conditions: Dandelion, postemergence, greenhouse, three weeks, 0-100 scale
From the text: as §1, §2

Large crabgrass = type: in vivo, Digitaria sanguinales (L.) Scop.; conditions: Large crabgrass, postemergence, greenhouse, three weeks, 0-100 scale
From the text: as §1, §2

Hard fescue = type: in vivo, Festuca species; conditions: Hard fescue, postemergence, greenhouse, three weeks, 0-100 scale
From the text: as §1, §2

[1] = herbicide 80 g ai/ha + Compound 1 125 g ai/ha

COc1cc(OC)nc(NC(=O)NS(=O)(=O)c2ncccc2C(=O)N(C)C)n1 [Nicosulfuron, nicosulfuron]
Observed Response, Herbicide mixture with Compound 1 (Purple nutsedge; [1]): 80
Observed Response, Herbicide alone (Purple nutsedge; herbicide 80 g ai/ha): 80
Observed Response, Herbicide mixture with Compound 1 (Henbit; [1]): 100
Observed Response, Herbicide alone (Henbit; herbicide 80 g ai/ha): 100
Observed Response, Herbicide mixture with Compound 1 (Tall fescue; [1]): 60
Observed Response, Herbicide alone (Tall fescue; herbicide 80 g ai/ha): 60
Observed Response, Herbicide mixture with Compound 1 (Chickweed; [1]): 100
Observed Response, Herbicide alone (Chickweed; herbicide 80 g ai/ha): 100
Observed Response, Herbicide mixture with Compound 1 (Perennial ryegrass; [1]): 50
Observed Response, Herbicide alone (Perennial ryegrass; herbicide 80 g ai/ha): 80
Observed Response, Herbicide mixture with Compound 1 (Annual bluegrass; [1]): 100
Observed Response, Herbicide alone (Annual bluegrass; herbicide 80 g ai/ha): 100
Observed Response, Herbicide mixture with Compound 1 (Zoysia grass; [1]): 0
Observed Response, Herbicide alone (Zoysia grass; herbicide 80 g ai/ha): 25
Observed Response, Herbicide mixture with Compound 1 (Bermudagrass; [1]): 0
Observed Response, Herbicide alone (Bermudagrass; herbicide 80 g ai/ha): 0
Observed Response, Herbicide mixture with Compound 1 (Venice mallow; [1]): 80
Observed Response, Herbicide alone (Venice mallow; herbicide 80 g ai/ha): 40
Observed Response, Herbicide mixture with Compound 1 (Creeping bentgrass; [1]): 88
Observed Response, Herbicide alone (Creeping bentgrass; herbicide 80 g ai/ha): 80
Observed Response, Herbicide mixture with Compound 1 (Goosegrass; [1]): 90
Observed Response, Herbicide alone (Goosegrass; herbicide 80 g ai/ha): 80
Observed Response, Herbicide mixture with Compound 1 (Dandelion; [1]): 100
Observed Response, Herbicide alone (Dandelion; herbicide 80 g ai/ha): 100
Observed Response, Herbicide mixture with Compound 1 (Large crabgrass; [1]): 100
Observed Response, Herbicide alone (Large crabgrass; herbicide 80 g ai/ha): 100
Observed Response, Herbicide mixture with Compound 1 (Hard fescue; [1]): 30
Observed Response, Herbicide alone (Hard fescue; herbicide 80 g ai/ha): 60
